Experimental data taken from PubChem BioAssay AID2060487 (Molecular Pharmacology Branch, DTP, NCI, 2025).
Blank lines part the entries; values can stand above or below the compound they belong to.

Test system: 997537-175-T-J1-PDC complex spheroid viability
Assay: Anticancer human tumor 997537-175-T-J1-PDC patient-derived colon adenocarcinoma cell line growth inhibition [GQUAD]
Settings: for IC50: curve of first compound; for viability, T/C: stronger effect = lower value
Procedure, shortened: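 Multi-cell-type spheroids of tumor cells with HUVEC and mesenchymal stem cells, treated with drug combinations. Concentrations descend in half-log steps from near clinical Cmax, or from 10 microM where Cmax is unknown; viability read-out.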

[1] = second compound 0.0316 µM, first compound 0.0316 µM
[2] = second compound 0.0316 µM, first compound 0.1 µM
[3] = second compound 0.0316 µM, first compound 0.316 µM
[4] = second compound 0.0316 µM, first compound 1 µM
[5] = second compound 0.0316 µM, first compound 3.16 µM
[6] = second compound 0.0316 µM, first compound 10 µM
[7] = second compound 0.1 µM, first compound 0.0316 µM
[8] = second compound 0.1 µM, first compound 0.1 µM
[9] = second compound 0.1 µM, first compound 0.316 µM
[10] = second compound 0.1 µM, first compound 1 µM
[11] = second compound 0.1 µM, first compound 3.16 µM
[12] = second compound 0.1 µM, first compound 10 µM
[13] = second compound 0.316 µM, first compound 0.0316 µM
[14] = second compound 0.316 µM, first compound 0.1 µM
[15] = second compound 0.316 µM, first compound 0.316 µM
[16] = second compound 0.316 µM, first compound 1 µM
[17] = second compound 0.316 µM, first compound 3.16 µM
[18] = second compound 0.316 µM, first compound 10 µM
[19] = second compound 1 µM, first compound 0.0316 µM
[20] = second compound 1 µM, first compound 0.1 µM
[21] = second compound 1 µM, first compound 0.316 µM
[22] = second compound 1 µM, first compound 1 µM
[23] = second compound 1 µM, first compound 3.16 µM
[24] = second compound 1 µM, first compound 10 µM
[25] = second compound 3.16 µM, first compound 0.0316 µM
[26] = second compound 3.16 µM, first compound 0.1 µM
[27] = second compound 3.16 µM, first compound 0.316 µM
[28] = second compound 3.16 µM, first compound 1 µM
[29] = second compound 3.16 µM, first compound 3.16 µM
[30] = second compound 3.16 µM, first compound 10 µM
[31] = second compound 10 µM, first compound 0.0316 µM
[32] = second compound 10 µM, first compound 0.1 µM
[33] = second compound 10 µM, first compound 0.316 µM
[34] = second compound 10 µM, first compound 1 µM
[35] = second compound 10 µM, first compound 3.16 µM
[36] = second compound 10 µM, first compound 10 µM
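Also: spheroids exposed to the agents for 7 days.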
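For viability, T/C in this document: 100% = DMSO vehicle control viability.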

Structure (SMILES): C#Cc1c(F)ccc2cc(O)cc(-c3ncc4c(N5CC6CCC(C5)N6)nc(OCC56CCCN5CC(F)C6)nc4c3F)c12 (stereo not given) + Cc1cnc(CNC(=O)c2c(=O)c3ccc(N4CCCN(C)CC4)nc3n3c2sc2ccccc23)cn1
IC50 (second compound 0.0316 µM): > 10 µM
IC50 (second compound 0.1 µM): > 10 µM
IC50 (second compound 0.316 µM): > 10 µM
IC50 (second compound 1 µM): > 10 µM
IC50 (second compound 3.16 µM): > 10 µM
IC50 (second compound 10 µM): > 10 µM
viability, T/C [1]: 102%
viability, T/C [2]: 85.6%
viability, T/C [3]: 101%
viability, T/C [4]: 74.9%
viability, T/C [5]: 75.7%
viability, T/C [6]: 111%
viability, T/C [7]: 92.2%
viability, T/C [8]: 90.2%
viability, T/C [9]: 101%
viability, T/C [10]: 80.8%
viability, T/C [11]: 104%
viability, T/C [12]: 109%
viability, T/C [13]: 83.4%
viability, T/C [14]: 83.6%
viability, T/C [15]: 92.1%
viability, T/C [16]: 97.3%
viability, T/C [17]: 79.9%
viability, T/C [18]: 108%
viability, T/C [19]: 72.3%
viability, T/C [20]: 101%
viability, T/C [21]: 85%
viability, T/C [22]: 98%
viability, T/C [23]: 105%
viability, T/C [24]: 113%
viability, T/C [25]: 91.2%
viability, T/C [26]: 108%
viability, T/C [27]: 95.2%
viability, T/C [28]: 99.1%
viability, T/C [29]: 96.3%
viability, T/C [30]: 106%
viability, T/C [31]: 77%
viability, T/C [32]: 100%
viability, T/C [33]: 93.1%
viability, T/C [34]: 97.9%
viability, T/C [35]: 127%
viability, T/C [36]: 110%

Structure (SMILES): CC(=O)O[C@H]1C(=O)[C@@]2(C)[C@H]([C@H](OC(=O)c3ccccc3)[C@]3(O)C[C@H](OC(=O)[C@H](O)[C@@H](NC(=O)c4ccccc4)c4ccccc4)C(C)=C1C3(C)C)[C@]1(OC(C)=O)CO[C@@H]1C[C@@H]2O + Cc1cnc(CNC(=O)c2c(=O)c3ccc(N4CCCN(C)CC4)nc3n3c2sc2ccccc23)cn1
IC50 (second compound 0.0316 µM): 0.0514 µM
IC50 (second compound 0.1 µM): 0.0957 µM
IC50 (second compound 0.316 µM): 0.165 µM
IC50 (second compound 1 µM): > 10 µM
IC50 (second compound 3.16 µM): 5.21 µM
IC50 (second compound 10 µM): > 10 µM
viability, T/C [1]: 63.1%
viability, T/C [2]: 32.2%
viability, T/C [3]: 25.2%
viability, T/C [4]: 32.1%
viability, T/C [5]: 26.9%
viability, T/C [6]: 21.2%
viability, T/C [7]: 79.2%
viability, T/C [8]: 48.2%
viability, T/C [9]: 33.7%
viability, T/C [10]: 18.4%
viability, T/C [11]: 21.3%
viability, T/C [12]: 32.4%
viability, T/C [13]: 72.4%
viability, T/C [14]: 56.4%
viability, T/C [15]: 40.7%
viability, T/C [16]: 47.4%
viability, T/C [17]: 35%
viability, T/C [18]: 43.5%
viability, T/C [19]: 63%
viability, T/C [20]: 72.2%
viability, T/C [21]: 43.9%
viability, T/C [22]: 60.5%
viability, T/C [23]: 73.5%
viability, T/C [24]: 47.7%
viability, T/C [25]: 68.7%
viability, T/C [26]: 72.8%
viability, T/C [27]: 62.6%
viability, T/C [28]: 66%
viability, T/C [29]: 50.9%
viability, T/C [30]: 45.2%
viability, T/C [31]: 62.4%
viability, T/C [32]: 49.4%
viability, T/C [33]: 60%
viability, T/C [34]: 69.7%
viability, T/C [35]: 57%
viability, T/C [36]: 60.2%

Structure (SMILES): CC(C)(O)C1CCC(Nc2ccc3ncc(-c4cccc(C(F)(F)F)c4)n3n2)CC1 (stereo not given) + Cc1cnc(CNC(=O)c2c(=O)c3ccc(N4CCCN(C)CC4)nc3n3c2sc2ccccc23)cn1
IC50 (second compound 0.0316 µM): 1.13 µM
IC50 (second compound 0.1 µM): 0.896 µM
IC50 (second compound 0.316 µM): 1.38 µM
IC50 (second compound 1 µM): 1.73 µM
IC50 (second compound 3.16 µM): 1.5 µM
IC50 (second compound 10 µM): 1.57 µM
viability, T/C [1]: 90.1%
viability, T/C [2]: 66.9%
viability, T/C [3]: 88.4%
viability, T/C [4]: 52.1%
viability, T/C [5]: 32.2%
viability, T/C [6]: 30.2%
viability, T/C [7]: 87.6%
viability, T/C [8]: 80.2%
viability, T/C [9]: 73.4%
viability, T/C [10]: 46.9%
viability, T/C [11]: 36.7%
viability, T/C [12]: 33.7%
viability, T/C [13]: 98.1%
viability, T/C [14]: 81.1%
viability, T/C [15]: 80.5%
viability, T/C [16]: 57.2%
viability, T/C [17]: 31.7%
viability, T/C [18]: 36.5%
viability, T/C [19]: 69.9%
viability, T/C [20]: 101%
viability, T/C [21]: 91.4%
viability, T/C [22]: 64.5%
viability, T/C [23]: 35.4%
viability, T/C [24]: 27%
viability, T/C [25]: 92.5%
viability, T/C [26]: 84.4%
viability, T/C [27]: 96.3%
viability, T/C [28]: 65.4%
viability, T/C [29]: 20.1%
viability, T/C [30]: 23.2%
viability, T/C [31]: 76.2%
viability, T/C [32]: 108%
viability, T/C [33]: 91.5%
viability, T/C [34]: 69.4%
viability, T/C [35]: 19.1%
viability, T/C [36]: 21.2%

Further lines, with some results ahead:

IC50 (second compound 0.0316 µM): 1.9 µM
IC50 (second compound 0.1 µM): 1.76 µM
IC50 (second compound 0.316 µM): 0.778 µM
IC50 (second compound 1 µM): 0.739 µM
IC50 (second compound 3.16 µM): 1.89 µM
IC50 (second compound 10 µM): 1.46 µM
Structure (SMILES): CCCS(=O)(=O)Nc1ccc(F)c(C(=O)c2c[nH]c3ncc(-c4ccc(Cl)cc4)cc23)c1F + Cc1cnc(CNC(=O)c2c(=O)c3ccc(N4CCCN(C)CC4)nc3n3c2sc2ccccc23)cn1
viability, T/C [1]: 77.7%
viability, T/C [2]: 50.8%
viability, T/C [3]: 67.3%
viability, T/C [4]: 44.8%
viability, T/C [5]: 56.2%
viability, T/C [6]: 22.2%
viability, T/C [7]: 73.8%
viability, T/C [8]: 64.7%
viability, T/C [9]: 76.1%
viability, T/C [10]: 40.8%
viability, T/C [11]: 53.1%
viability, T/C [12]: 21.6%
viability, T/C [13]: 93.5%
viability, T/C [14]: 56.2%
viability, T/C [15]: 60%
viability, T/C [16]: 45.7%
viability, T/C [17]: 55.2%
viability, T/C [18]: 21.8%
viability, T/C [19]: 84.3%
viability, T/C [20]: 62.7%
viability, T/C [21]: 48.4%
viability, T/C [22]: 56.3%
viability, T/C [23]: 48.2%
viability, T/C [24]: 27.7%
viability, T/C [25]: 82.7%
viability, T/C [26]: 58.6%
viability, T/C [27]: 62.2%
viability, T/C [28]: 64.7%
viability, T/C [29]: 42.8%
viability, T/C [30]: 26.1%
viability, T/C [31]: 83.6%
viability, T/C [32]: 74.2%
viability, T/C [33]: 68.8%
viability, T/C [34]: 44%
viability, T/C [35]: 51.5%
viability, T/C [36]: 26.9%

IC50 (second compound 0.0316 µM): 1.93 µM
IC50 (second compound 0.1 µM): 2.11 µM
IC50 (second compound 0.316 µM): 4.01 µM
IC50 (second compound 1 µM): 1.96 µM
IC50 (second compound 3.16 µM): 1.84 µM
IC50 (second compound 10 µM): 1.62 µM
Structure (SMILES): O=C(NO)c1cnc(N2CCN(S(=O)(=O)c3ccc4ccccc4c3)CC2)nc1 + Cc1cnc(CNC(=O)c2c(=O)c3ccc(N4CCCN(C)CC4)nc3n3c2sc2ccccc23)cn1
viability, T/C [1]: 107%
viability, T/C [2]: 92.3%
viability, T/C [3]: 96.3%
viability, T/C [4]: 81.2%
viability, T/C [5]: 26.8%
viability, T/C [6]: 0.4%
viability, T/C [7]: 105%
viability, T/C [8]: 97%
viability, T/C [9]: 80.7%
viability, T/C [10]: 69%
viability, T/C [11]: 41.7%
viability, T/C [12]: 0.47%
viability, T/C [13]: 94.7%
viability, T/C [14]: 100%
viability, T/C [15]: 85.6%
viability, T/C [16]: 73.2%
viability, T/C [17]: 69.8%
viability, T/C [18]: 0.31%
viability, T/C [19]: 83.9%
viability, T/C [20]: 90%
viability, T/C [21]: 104%
viability, T/C [22]: 93%
viability, T/C [23]: 19.4%
viability, T/C [24]: 0.31%
viability, T/C [25]: 104%
viability, T/C [26]: 116%
viability, T/C [27]: 93.5%
viability, T/C [28]: 83.2%
viability, T/C [29]: 21.4%
viability, T/C [30]: 1.15%
viability, T/C [31]: 108%
viability, T/C [32]: 88.7%
viability, T/C [33]: 103%
viability, T/C [34]: 77.5%
viability, T/C [35]: 11.4%
viability, T/C [36]: 0.29%
